Results taken from publication PMC5386260, “Acute development of cortical porosity and endosteal naïve bone formation from the daily but not weekly short-term administration of PTH in rabbit” (PLoS ONE, 2017).

Experiment: Plasma TPTD concentration and pharmacokinetics (Rat PTH IRMA Kit, non-compartmental model)
Type: in vivo, rabbit
Text: Seventeen female New Zealand White rabbits (Kbl:NZW) were purchased from Kitayama Labs (Nagano, Japan) and were allowed to acclimatize with free access to water and food for 6 days before use. Throughout the experimental study, the animals were housed individually under a 12-h light/dark cycle with free access to water, but their food intake was restricted to 120g /day (LRC4, standard diet for rabbits; Oriental Yeast, Tokyo, Japan). The animals at 6 months of age were divided into 5 groups and were subcutaneously injected with 20 or 40 μg/kg of TPTD once-daily (D20 group [n = 3] and D40 group [n = 3], 140 or 280 μg/kg of TPTD once-weekly (W140 group [n = 3] and W280 group [n = 4]) for four weeks (Table 1). For the high-dose administration of TPTD, the dosage in once-daily treatment was set at 40 μg/kg/day based on a previous study, while the dosage of once-weekly TPTD treatment was set at 280 μg/kg/week; thus, the cumulative dose of TPTD each week was the same with the two treatment frequencies. In the W140 and W280 groups, saline was administered every day, except for the days on which TPTD was administered. Saline injections were administered to control animals (C group, n = 4) once daily and to each group as a vehicle.
[…] The samples were centrifuged at 1600 x g, at 4°C for 10 minutes and plasma samples were collected in order to measure the concentration of TPTD. […]
Teriparatide acetate was synthesized at Asahi Kasei Pharma Corporation (Tokyo, Japan) and was used as a standard substance. The teriparatide acetate concentration in the rabbit plasma was quantified using a Rat PTH IRMA Kit (Immutopics, Inc., San Clemente, CA) according to the manufacturer’s instructions. The pharmacokinetic parameters were calculated using a non-compartmental model (Phoenix WinNonlin; Pharsight, Mountain View, CA).

CC[C@H](C)[C@H](NC(=O)[C@H](CCC(=O)O)NC(=O)[C@H](CO)NC(=O)[C@@H](NC(=O)[C@@H](N)CO)C(C)C)C(=O)N[C@@H](CCC(N)=O)C(=O)N[C@@H](CC(C)C)C(=O)N[C@@H](CCSC)C(=O)N[C@@H](Cc1cnc[nH]1)C(=O)N[C@@H](CC(N)=O)C(=O)N[C@@H](CC(C)C)C(=O)NCC(=O)N[C@@H](CCCCN)C(=O)N[C@@H](Cc1cnc[nH]1)C(=O)N[C@@H](CC(C)C)C(=O)N[C@@H](CC(N)=O)C(=O)N[C@@H](CO)C(=O)N[C@@H](CCSC)C(=O)N[C@@H](CCC(=O)O)C(=O)N[C@@H](CCCN=C(N)N)C(=O)N[C@H](C(=O)N[C@@H](CCC(=O)O)C(=O)N[C@@H](Cc1c[nH]c2ccccc12)C(=O)N[C@@H](CC(C)C)C(=O)N[C@@H](CCCN=C(N)N)C(=O)N[C@@H](CCCCN)C(=O)N[C@@H](CCCCN)C(=O)N[C@@H](CC(C)C)C(=O)N[C@@H](CCC(N)=O)C(=O)N[C@@H](CC(=O)O)C(=O)N[C@H](C(=O)N[C@@H](Cc1cnc[nH]1)C(=O)N[C@@H](CC(N)=O)C(=O)N[C@@H](Cc1ccccc1)C(=O)O)C(C)C)C(C)C [TPTD, Teriparatide]
time for plasma TPTD levels to return to the basal levels (all of the dosage regimens): ≤ 3 h | plasma TPTD concentration relative to Cmax by 2h (all regimens (D20, D40, W140, W280), 2h post-dose): less than 40 % of Cmax | level at 5 min (female, New Zealand White (Kbl:NZW), rabbit, plasma, sc, 20 ug/kg, Day 1, 5 min, D20 (20 μg/kg sc once-daily), n=3, IRMA, mean): 7.14 ng/mL | level at 0.25 h (female, New Zealand White (Kbl:NZW), rabbit, plasma, sc, 20 ug/kg, Day 1, 15 min, D20 (20 μg/kg sc once-daily), n=3, IRMA, mean): 14.9 ng/mL | level at 0.5 h (female, New Zealand White (Kbl:NZW), rabbit, plasma, sc, 20 ug/kg, Day 1, 30 min, D20 (20 μg/kg sc once-daily), n=3, IRMA, mean): 19.8 ng/mL | level at 1 h (female, New Zealand White (Kbl:NZW), rabbit, plasma, sc, 20 ug/kg, Day 1, 1 hour, D20 (20 μg/kg sc once-daily), n=3, IRMA, mean): 11.8 ng/mL | level at 2 h (female, New Zealand White (Kbl:NZW), rabbit, plasma, sc, 20 ug/kg, Day 1, 2 hour, D20 (20 μg/kg sc once-daily), n=3, IRMA, mean): 1.77 ng/mL | level at 5 min (female, New Zealand White (Kbl:NZW), rabbit, plasma, sc, 20 ug/kg, Day 22, 5 min, D20 (20 μg/kg sc once-daily), n=3, IRMA, mean): 7.06 ng/mL | level at 0.25 h (female, New Zealand White (Kbl:NZW), rabbit, plasma, sc, 20 ug/kg, Day 22, 15 min, D20 (20 μg/kg sc once-daily), n=3, IRMA, mean): 17 ng/mL | level at 0.5 h (female, New Zealand White (Kbl:NZW), rabbit, plasma, sc, 20 ug/kg, Day 22, 30 min, D20 (20 μg/kg sc once-daily), n=3, IRMA, mean): 24.6 ng/mL | level at 1 h (female, New Zealand White (Kbl:NZW), rabbit, plasma, sc, 20 ug/kg, Day 22, 1 hour, D20 (20 μg/kg sc once-daily), n=3, IRMA, mean): 20.5 ng/mL | level at 2 h (female, New Zealand White (Kbl:NZW), rabbit, plasma, sc, 20 ug/kg, Day 22, 2 hour, D20 (20 μg/kg sc once-daily), n=3, IRMA, mean): 3.8 ng/mL | level at 24 h (female, New Zealand White (Kbl:NZW), rabbit, plasma, sc, 20 ug/kg, Day 22, 24 hour, D20 (20 μg/kg sc once-daily), n=3, IRMA, mean): 0.13 ng/mL | level at 5 min (female, New Zealand White (Kbl:NZW), rabbit, plasma, sc, 40 ug/kg, Day 1, 5 min, D40 (40 μg/kg sc once-daily), n=3, IRMA, mean): 9.83 ng/mL | level at 0.25 h (female, New Zealand White (Kbl:NZW), rabbit, plasma, sc, 40 ug/kg, Day 1, 15 min, D40 (40 μg/kg sc once-daily), n=3, IRMA, mean): 23.6 ng/mL | level at 0.5 h (female, New Zealand White (Kbl:NZW), rabbit, plasma, sc, 40 ug/kg, Day 1, 30 min, D40 (40 μg/kg sc once-daily), n=3, IRMA, mean): 34.3 ng/mL | level at 1 h (female, New Zealand White (Kbl:NZW), rabbit, plasma, sc, 40 ug/kg, Day 1, 1 hour, D40 (40 μg/kg sc once-daily), n=3, IRMA, mean): 29.9 ng/mL | level at 2 h (female, New Zealand White (Kbl:NZW), rabbit, plasma, sc, 40 ug/kg, Day 1, 2 hour, D40 (40 μg/kg sc once-daily), n=3, IRMA, mean): 10.6 ng/mL | level at 5 min (female, New Zealand White (Kbl:NZW), rabbit, plasma, sc, 40 ug/kg, Day 22, 5 min, D40 (40 μg/kg sc once-daily), n=3, IRMA, mean): 10.3 ng/mL | level at 0.25 h (female, New Zealand White (Kbl:NZW), rabbit, plasma, sc, 40 ug/kg, Day 22, 15 min, D40 (40 μg/kg sc once-daily), n=3, IRMA, mean): 32.7 ng/mL | level at 0.5 h (female, New Zealand White (Kbl:NZW), rabbit, plasma, sc, 40 ug/kg, Day 22, 30 min, D40 (40 μg/kg sc once-daily), n=3, IRMA, mean): 54 ng/mL | level at 1 h (female, New Zealand White (Kbl:NZW), rabbit, plasma, sc, 40 ug/kg, Day 22, 1 hour, D40 (40 μg/kg sc once-daily), n=3, IRMA, mean): 49.2 ng/mL | level at 2 h (female, New Zealand White (Kbl:NZW), rabbit, plasma, sc, 40 ug/kg, Day 22, 2 hour, D40 (40 μg/kg sc once-daily), n=3, IRMA, mean): 14 ng/mL | level at 5 min (female, New Zealand White (Kbl:NZW), rabbit, plasma, sc, 140 ug/kg, Day 1, 5 min, W140 (140 μg/kg sc once-weekly), n=3, IRMA, mean): 38 ng/mL | level at 0.25 h (female, New Zealand White (Kbl:NZW), rabbit, plasma, sc, 140 ug/kg, Day 1, 15 min, W140 (140 μg/kg sc once-weekly), n=3, IRMA, mean): 85.4 ng/mL | level at 0.5 h (female, New Zealand White (Kbl:NZW), rabbit, plasma, sc, 140 ug/kg, Day 1, 30 min, W140 (140 μg/kg sc once-weekly), n=3, IRMA, mean): 132 ng/mL | level at 1 h (female, New Zealand White (Kbl:NZW), rabbit, plasma, sc, 140 ug/kg, Day 1, 1 hour, W140 (140 μg/kg sc once-weekly), n=3, IRMA, mean): 121 ng/mL | level at 2 h (female, New Zealand White (Kbl:NZW), rabbit, plasma, sc, 140 ug/kg, Day 1, 2 hour, W140 (140 μg/kg sc once-weekly), n=3, IRMA, mean): 50.4 ng/mL | level at 5 min (female, New Zealand White (Kbl:NZW), rabbit, plasma, sc, 140 ug/kg, Day 22, 5 min, W140 (140 μg/kg sc once-weekly), n=3, IRMA, mean): 33.5 ng/mL | level at 0.25 h (female, New Zealand White (Kbl:NZW), rabbit, plasma, sc, 140 ug/kg, Day 22, 15 min, W140 (140 μg/kg sc once-weekly), n=3, IRMA, mean): 124 ng/mL | level at 0.5 h (female, New Zealand White (Kbl:NZW), rabbit, plasma, sc, 140 ug/kg, Day 22, 30 min, W140 (140 μg/kg sc once-weekly), n=3, IRMA, mean): 202 ng/mL | level at 1 h (female, New Zealand White (Kbl:NZW), rabbit, plasma, sc, 140 ug/kg, Day 22, 1 hour, W140 (140 μg/kg sc once-weekly), n=3, IRMA, mean): 147 ng/mL
